BindingDB's records for doi:10.1021/jm00087a005 (Nova Pharmaceutical, 1992)

Tests used:
Test in all cases: Potency at the sigma binding site was determined in radioligand
[1] = target: sigma receptor, [3H]-(+)-3-PPP site (Cavia porcellus)
[2] = target: sigma receptor, [3H]DTG site (Cavia porcellus)
[3] = target: sigma receptor, [3H]-(+)-3-PPP site (Cavia porcellus); remark: listed apart in the source

Row | SMILES | IC50 [1] [nM] | IC50 [2] [nM] | IC50 [3] [nM]
1 | O=c1cc(-c2ccc(F)cc2)oc2ccc(OCCCCCCN3CCC(O)CC3)cc12 | 132 | 95 | 
2 | CN(CCCCCCOc1ccc2oc(-c3ccccc3)cc(=O)c2c1)Cc1ccccc1 | 75 | 52 | 
3 | CC(C)Cc1cc(=O)c2cc(OCCCCCN3CCC(O)CC3)ccc2o1 | 261 | 139 | 
4 | COc1cccc(-c2cc(=O)c3cc(OCCCCCCN4CCC(O)CC4)ccc3o2)c1 | 111 | 76 | 
5 | CN(C)CCCCCCCCCCOc1ccc2oc(-c3ccccc3)cc(=O)c2c1 | 341 | 297 | 
6 | O=c1cc(-c2ccncc2)oc2ccc(OCCCCCCN3CCC(O)CC3)cc12 |  | 159 | 308
7 | CCOC(=O)C1CCN(CCCCCCOc2ccc3oc(-c4ccccc4)cc(=O)c3c2)CC1 | 102 | 164 | 
8 | O=c1cc(-c2ccccc2)oc2cccc(OCCCCN3CCC(O)CC3)c12 |  | 58 | 
9 | CN(C)CCCCOc1ccc2oc(-c3ccccc3)cc(=O)c2c1 | 400 | 720 | 
10 | CN(C)CCCCCCOc1ccc2oc(-c3ccccc3)cc(=O)c2c1 |  | 432 | 335
11 | O=c1cc(-c2ccccc2)oc2ccc(OCCCCCCN3CCNCC3c3ncccn3)cc12 (stereo not given) | 14200 |  | 
12 | O=c1cc(-c2ccc(Cl)cc2)oc2ccc(OCCCCCCN3CCC(O)CC3)cc12 | 164 | 195 | 
13 | O=c1cc(-c2ccccc2)oc2cc(OCCCCCCCN3CCC(O)CC3)ccc12 |  | 16 | 19
14 | CN(C)CCCCCCCCOc1ccc2oc(-c3ccccc3)cc(=O)c2c1 | 143 | 227 | 
15 | O=c1cc(-c2ccccc2)oc2cccc(OCCCN3CCC(O)CC3)c12 |  | 125 | 91
16 | O=c1cc(C2CCCC2)oc2ccc(OCCCCCCN3CCC(O)CC3)cc12 | 55 | 51 | 
17 | COc1ccc(-c2cc(=O)c3cc(OCCCCCCN4CCC(O)CC4)ccc3o2)cc1 | 332 | 254 | 
18 | O=c1cc(C2CCCCC2)oc2ccc(OCCCCCCN3CCCCC3)cc12 | 32 | 55 | 
19 | O=c1cc(C2CCCCC2)oc2ccc(OCCCCCCN3CCOCC3)cc12 | 95 | 239 | 

Further molecules by falling IC50 [2], results first:

Row | IC50 [1] [nM] | IC50 [2] [nM] | IC50 [3] [nM] | SMILES
20 | 40 | 590 |  | CN(C)CCOc1ccc2oc(-c3ccccc3)cc(=O)c2c1
21 | 600 | 493 |  | COc1ccc(-c2cc(=O)c3cc(OCCCCCN4CCC(O)CC4)ccc3o2)cc1
22 | 202 | 334 |  | CN(C)CCCCCCCCCOc1ccc2oc(-c3ccccc3)cc(=O)c2c1
23 | 210 | 194 |  | O=c1cc(-c2cccnc2)oc2ccc(OCCCCCCN3CCC(O)CC3)cc12
24 | 188 | 165 |  | CN(C)CCCCCCCOc1ccc2oc(-c3ccccc3)cc(=O)c2c1
25 | 123 | 130 |  | O=c1cc(-c2ccccc2)oc2ccc(OCCCN3CCC(O)CC3)cc12
26 | 192 | 119 |  | O=c1cc(-c2cccnc2)oc2ccc(OCCCCCCN3CCCCC3)cc12
27 |  | 119 | 232 | O=c1cc(-c2cccs2)oc2ccc(OCCCCCCN3CCC(O)CC3)cc12
28 | 54 | 101 |  | O=c1cc(-c2ccccc2)oc2ccc(OCCCCCCN3CCCCC3)cc12
29 |  | 100 | 121 | O=c1cc(-c2ccccc2)oc2ccc(OCCCCCCN3CCC(O)CC3)cc12
30 |  | 91 | 100 | CCN(CC)CCCCCCOc1ccc2oc(-c3ccccc3)cc(=O)c2c1
31 | 46 | 88 |  | O=c1cc(C2CCCCC2)oc2ccc(OCCCCCCN3CCC(O)CC3)cc12
32 | 77 | 86 |  | O=c1cc(-c2ccccc2)oc2ccc(OCCCCCCN3CCCC(O)C3)cc12 (stereo not given)
33 |  | 47 | 29 | O=c1cc(-c2ccccc2Cl)oc2ccc(OCCCCCCN3CCC(O)CC3)cc12
34 | 70 | 45 |  | O=c1cc(-c2ccccc2)oc2cc(OCCCCCCN3CCC(O)CC3)ccc12
35 |  | 36 | 65 | O=c1cc(-c2ccccc2)oc2cccc(OCCCCCCCN3CCC(O)CC3)c12
36 | 38 | 26 |  | O=c1cc(C2CCCC2)oc2ccc(OCCCCCCN3CCCCC3)cc12
